PubChem BioAssay (NCI)
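Compound exposure: 48 hours, 5 concentrations, 96-well plates. The concentration for 50% growth inhibition is given as GI50. Definition used: TGI = concentration required for complete inhibition of growth.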

What was measured:
Assay in all cases: NCI tumour cell line growth inhibition, 48 h
ACHN renal = system: ACHN renal
U251 CNS = system: U251 CNS
SNB-19 CNS = system: SNB-19 CNS
HCT-116 colon = system: HCT-116 colon
OVCAR-8 ovarian = system: OVCAR-8 ovarian
SW-620 colon = system: SW-620 colon
HOP-62 NSCLC = system: HOP-62 NSCLC
UACC-62 melanoma = system: UACC-62 melanoma
M14 melanoma = system: M14 melanoma
OVCAR-4 ovarian = system: OVCAR-4 ovarian
SK-OV-3 ovarian = system: SK-OV-3 ovarian
DU-145 prostate = system: DU-145 prostate
SK-MEL-5 melanoma = system: SK-MEL-5 melanoma
NCI-H522 lung = system: NCI-H522 lung
SR leukemia = system: SR leukemia
CAKI-1 renal = system: CAKI-1 renal
UACC-257 melanoma = system: UACC-257 melanoma
UO-31 renal = system: UO-31 renal
SK-MEL-2 melanoma = system: SK-MEL-2 melanoma
T-47D breast = system: T-47D breast
LOX IMVI melanoma = system: LOX IMVI melanoma
MOLT-4 leukemia = system: MOLT-4 leukemia
HS 578T breast = system: HS 578T breast
RPMI-8226 leukemia = system: RPMI-8226 leukemia
SK-MEL-28 melanoma = system: SK-MEL-28 melanoma
SN12C renal = system: SN12C renal
MDA-MB-231 breast = system: MDA-MB-231 breast
TK-10 renal = system: TK-10 renal
SNB-75 CNS = system: SNB-75 CNS
K-562 leukemia = system: K-562 leukemia
HCC-2998 colon = system: HCC-2998 colon
HL-60(TB) leukemia = system: HL-60(TB) leukemia
NCI-H226 lung = system: NCI-H226 lung
OVCAR-5 ovarian = system: OVCAR-5 ovarian
COLO 205 colon = system: COLO 205 colon
HOP-92 NSCLC = system: HOP-92 NSCLC
CCRF-CEM leukemia = system: CCRF-CEM leukemia
MALME-3M melanoma = system: MALME-3M melanoma
MDA-MB-435 = system: MDA-MB-435
A498 renal = system: A498 renal
RXF 393 renal = system: RXF 393 renal
SF-539 CNS = system: SF-539 CNS
HCT-15 colon = system: HCT-15 colon
NCI-H23 lung = system: NCI-H23 lung
SF-295 CNS = system: SF-295 CNS
786-0 renal = system: 786-0 renal
IGROV1 ovarian = system: IGROV1 ovarian
KM12 colon = system: KM12 colon
PC-3 prostate = system: PC-3 prostate
HT29 colon = system: HT29 colon
MCF7 breast = system: MCF7 breast
EKVX NSCLC = system: EKVX NSCLC
NCI-H460 lung = system: NCI-H460 lung
A549 NSCLC = system: A549 NSCLC
SF-268 CNS = system: SF-268 CNS
NCI/ADR-RES ovarian = system: NCI/ADR-RES ovarian
BT-549 breast = system: BT-549 breast

`CNC(=O)c1cc(N2CCc3cc(NC(=O)Nc4ccc(N5CCN(C)CC5)c(C(F)(F)F)c4)ccc32)ccn1` gave a GI50 (ACHN renal) of 3.92 µM, a TGI (ACHN renal) of 7.31 µM and a GI50 (U251 CNS) of 2.45 µM. It also gave a TGI (U251 CNS) of 5.75 µM, a GI50 (SNB-19 CNS) of 3.6 µM and a TGI (SNB-19 CNS) of 8.12 µM. For the same compound, the GI50 (HCT-116 colon) was 2.22 µM, the TGI (HCT-116 colon) was 5.35 µM and the GI50 (OVCAR-8 ovarian) was 4.48 µM. It also gave a TGI (OVCAR-8 ovarian) of 8.67 µM, a GI50 (SW-620 colon) of 0.881 µM and a TGI (SW-620 colon) of 2.87 µM. It also gave a GI50 (HOP-62 NSCLC) of 4.02 µM, a TGI (HOP-62 NSCLC) of 8.34 µM and a GI50 (UACC-62 melanoma) of 4.48 µM. The TGI (UACC-62 melanoma) was 9.4 µM, the GI50 (M14 melanoma) was 3.34 µM and the TGI (M14 melanoma) was 6.67 µM. The GI50 (OVCAR-4 ovarian) was 3.96 µM, the TGI (OVCAR-4 ovarian) was 8.69 µM and the GI50 (SK-OV-3 ovarian) was > 25 µM. For the same compound, the TGI (SK-OV-3 ovarian) was > 25 µM, the GI50 (DU-145 prostate) was 4.22 µM and the TGI (DU-145 prostate) was 8.12 µM. The GI50 (SK-MEL-5 melanoma) was 4.32 µM, the TGI (SK-MEL-5 melanoma) was 7.89 µM and the GI50 (NCI-H522 lung) was 4.87 µM. For the same compound, the TGI (NCI-H522 lung) was 9.54 µM, the GI50 (SR leukemia) was 0.79 µM and the TGI (SR leukemia) was 4.43 µM. For the same compound, the GI50 (CAKI-1 renal) was 4.43 µM, the TGI (CAKI-1 renal) was 9.07 µM and the GI50 (UACC-257 melanoma) was 4.31 µM. For the same compound, the TGI (UACC-257 melanoma) was 8.05 µM, the GI50 (UO-31 renal) was 4.22 µM and the TGI (UO-31 renal) was 9.43 µM. For the same compound, the GI50 (SK-MEL-2 melanoma) was 4.56 µM, the TGI (SK-MEL-2 melanoma) was 8.66 µM and the GI50 (T-47D breast) was 4.14 µM. The TGI (T-47D breast) was 9.32 µM, the GI50 (LOX IMVI melanoma) was 3.44 µM and the TGI (LOX IMVI melanoma) was 7.14 µM. The GI50 (MOLT-4 leukemia) was 1.18 µM, the TGI (MOLT-4 leukemia) was 22 µM and the GI50 (HS 578T breast) was 3.49 µM. The TGI (HS 578T breast) was 9.66 µM, the GI50 (RPMI-8226 leukemia) was 0.742 µM and the TGI (RPMI-8226 leukemia) was 2.69 µM. For the same compound, the GI50 (SK-MEL-28 melanoma) was 3.7 µM, the TGI (SK-MEL-28 melanoma) was 7.19 µM and the GI50 (SN12C renal) was 4.05 µM. It also gave a TGI (SN12C renal) of 8.1 µM, a GI50 (MDA-MB-231 breast) of 3.48 µM and a TGI (MDA-MB-231 breast) of 7.83 µM. For the same compound, the GI50 (TK-10 renal) was 5.42 µM, the TGI (TK-10 renal) was 11.1 µM and the GI50 (SNB-75 CNS) was 2.55 µM. The TGI (SNB-75 CNS) was 5.75 µM, the GI50 (K-562 leukemia) was 0.69 µM and the TGI (K-562 leukemia) was 2.19 µM. It also gave a GI50 (HCC-2998 colon) of 4.13 µM, a TGI (HCC-2998 colon) of 7.83 µM and a GI50 (HL-60(TB) leukemia) of 4.28 µM. For the same compound, the TGI (HL-60(TB) leukemia) was 11.9 µM, the GI50 (NCI-H226 lung) was > 25 µM and the TGI (NCI-H226 lung) was > 25 µM. For the same compound, the GI50 (OVCAR-5 ovarian) was 3.76 µM, the TGI (OVCAR-5 ovarian) was 8.4 µM and the GI50 (COLO 205 colon) was 4.54 µM. The TGI (COLO 205 colon) was 8.71 µM, the GI50 (HOP-92 NSCLC) was 21.4 µM and the TGI (HOP-92 NSCLC) was > 25 µM. It also gave a GI50 (CCRF-CEM leukemia) of 1.17 µM, a TGI (CCRF-CEM leukemia) of 21.6 µM and a GI50 (MALME-3M melanoma) of 3.72 µM. It also gave a TGI (MALME-3M melanoma) of 7.52 µM, a GI50 (MDA-MB-435) of 3.99 µM and a TGI (MDA-MB-435) of 7.6 µM. The GI50 (A498 renal) was 7.9 µM, the TGI (A498 renal) was > 25 µM and the GI50 (RXF 393 renal) was 0.815 µM. The TGI (RXF 393 renal) was 3.15 µM, the GI50 (SF-539 CNS) was 1.03 µM and the TGI (SF-539 CNS) was 4.15 µM. It also gave a GI50 (HCT-15 colon) of 0.879 µM, a TGI (HCT-15 colon) of 3.59 µM and a GI50 (NCI-H23 lung) of 3.73 µM. For the same compound, the TGI (NCI-H23 lung) was 8.06 µM, the GI50 (SF-295 CNS) was 0.541 µM and the TGI (SF-295 CNS) was 1.33 µM. For the same compound, the GI50 (786-0 renal) was 2.86 µM, the TGI (786-0 renal) was 6.15 µM and the GI50 (IGROV1 ovarian) was 4.6 µM. It also gave a TGI (IGROV1 ovarian) of 9.53 µM, a GI50 (KM12 colon) of 0.862 µM and a TGI (KM12 colon) of 4.24 µM. For the same compound, the GI50 (PC-3 prostate) was 4.36 µM, the TGI (PC-3 prostate) was 15.3 µM and the GI50 (HT29 colon) was 1.31 µM. For the same compound, the TGI (HT29 colon) was 4.91 µM, the GI50 (MCF7 breast) was 2.96 µM and the TGI (MCF7 breast) was 7.39 µM. It also gave a GI50 (EKVX NSCLC) of 3.95 µM, a TGI (EKVX NSCLC) of 7.73 µM and a GI50 (NCI-H460 lung) of 3.78 µM. The TGI (NCI-H460 lung) was 7.68 µM, the GI50 (A549 NSCLC) was 3.94 µM and the TGI (A549 NSCLC) was 7.99 µM. For the same compound, the GI50 (SF-268 CNS) was 4.08 µM, the TGI (SF-268 CNS) was 9.86 µM and the GI50 (NCI/ADR-RES ovarian) was 5.27 µM. It also gave a TGI (NCI/ADR-RES ovarian) of 12 µM, a GI50 (BT-549 breast) of 4.59 µM and a TGI (BT-549 breast) of 14.4 µM.
`COc1cc(/C=C/C(=O)c2ccc(C)cc2)ccc1Oc1nc(NCCO)nc(N2CCOCC2)n1` was tested, and the GI50 (HOP-62 NSCLC) was 16.6 µM, the TGI (HOP-62 NSCLC) was > 100 µM and the GI50 (OVCAR-4 ovarian) was 3.92 µM. For the same compound, the TGI (OVCAR-4 ovarian) was > 100 µM, the GI50 (SK-OV-3 ovarian) was 23 µM and the TGI (SK-OV-3 ovarian) was > 100 µM. For the same compound, the GI50 (DU-145 prostate) was 3.79 µM, the TGI (DU-145 prostate) was > 100 µM and the GI50 (SR leukemia) was 1.06 µM. For the same compound, the TGI (SR leukemia) was 7.16 µM, the GI50 (CAKI-1 renal) was 5.02 µM and the TGI (CAKI-1 renal) was > 100 µM. For the same compound, the GI50 (UACC-257 melanoma) was 3.98 µM, the TGI (UACC-257 melanoma) was > 100 µM and the GI50 (SK-MEL-2 melanoma) was 8.17 µM. The TGI (SK-MEL-2 melanoma) was > 100 µM, the GI50 (T-47D breast) was 2.98 µM and the TGI (T-47D breast) was > 100 µM. It also gave a GI50 (LOX IMVI melanoma) of 0.43 µM, a TGI (LOX IMVI melanoma) of 1.5 µM and a GI50 (HS 578T breast) of 4.6 µM. For the same compound, the TGI (HS 578T breast) was > 100 µM, the GI50 (RPMI-8226 leukemia) was 1.72 µM and the TGI (RPMI-8226 leukemia) was 6.02 µM. The GI50 (MDA-MB-231 breast) was 2.98 µM, the TGI (MDA-MB-231 breast) was > 100 µM and the GI50 (TK-10 renal) was > 100 µM. The TGI (TK-10 renal) was > 100 µM, the GI50 (SNB-75 CNS) was > 100 µM and the TGI (SNB-75 CNS) was > 100 µM. For the same compound, the GI50 (K-562 leukemia) was 1.53 µM, the TGI (K-562 leukemia) was > 100 µM and the GI50 (NCI-H226 lung) was 6.28 µM. For the same compound, the TGI (NCI-H226 lung) was > 100 µM, the GI50 (OVCAR-5 ovarian) was 3.22 µM and the TGI (OVCAR-5 ovarian) was > 100 µM. For the same compound, the GI50 (HOP-92 NSCLC) was 8.4 µM, the TGI (HOP-92 NSCLC) was > 100 µM and the GI50 (CCRF-CEM leukemia) was 2.71 µM. The TGI (CCRF-CEM leukemia) was > 100 µM, the GI50 (MDA-MB-435) was 3.31 µM and the TGI (MDA-MB-435) was > 100 µM. The GI50 (A498 renal) was > 100 µM, the TGI (A498 renal) was > 100 µM and the GI50 (EKVX NSCLC) was 3.9 µM. The TGI (EKVX NSCLC) was > 100 µM, the GI50 (A549 NSCLC) was 9.47 µM and the TGI (A549 NSCLC) was > 100 µM. For the same compound, the GI50 (SF-268 CNS) was 2.9 µM, the TGI (SF-268 CNS) was > 100 µM and the GI50 (NCI/ADR-RES ovarian) was 2.08 µM. It also gave a TGI (NCI/ADR-RES ovarian) of 4.57 µM.
